Assay results: PMC8854719, “Phase 1A/1B dose-escalation and -expansion study to evaluate the safety, pharmacokinetics, food effects and antitumor activity of pamiparib in advanced solid tumours” (British Journal of Cancer, 2021)

Tested on: advanced solid tumours
Test: Tumour response and PFS per RECIST v1.1, overall efficacy-evaluable population
Type: in vivo, human
Details: for Best overall response: Not evaluable / Best overall response: Partial response / Best overall response: Progressive disease / Best overall response: Stable disease / Clinical benefit rate / Disease control rate / Objective response rate / Best overall response: Complete response / Best overall response: Not assessed: dose escalation
Protocol: Pamiparib in plasma was measured using a validated liquid chromatography-tandem–mass spectrometry assay with a lower limit of quantification of 1.0 ng/mL. The collection schedule for blood samples used to assess the PK profile is presented in the Supplemental Appendix. Summary PK parameters, including area under the concentration-time curve from time 0 to 9 h (AUC0-9) or infinity (AUC0-inf), maximal plasma concentration (Cmax) and time to maximal plasma concentration (Tmax), were estimated. The pharmacodynamic (PD) activity of pamiparib was explored through the evaluation of poly(ADP-ribose [PAR]) formation in peripheral blood mononuclear cells (PBMCs) after pamiparib administration. The schedule for blood sample collection (PK and PBMCs) and additional assessment information for PAR levels in PBMCs and pharmacodynamic activity is presented in the Supplemental Appendix. Antitumor activity was assessed by radiographic imaging (computed tomography or magnetic resonance imaging) during screening, within 28 days of first pamiparib dose, every 6 weeks in the first 12 months and every 9 weeks thereafter.
Tumour response was evaluated by RECIST v1.1. For patients with ovarian cancer, tumour response was assessed per RECIST v1.1 and by Gynecologic Cancer Intergroup (GCIG) CA-125 criteria. Tumour response for patients with prostate cancer was assessed by Prostate Cancer Clinical Trials Working Group 2 (PCWG2) criteria. Objective response rate (ORR) was defined as the proportion of patients achieving a confirmed complete response (CR) or partial response (PR) on study treatment. Blood tumour antigens (e.g., carcinoembryonic antigen for colorectal cancer, CA-125 for ovarian cancer and prostate-specific antigen [PSA] for mCRPC) were assessed during screening, every 6 weeks after the first pamiparib dose in the first 12 months, and every 9 weeks thereafter.
The safety population comprised all patients in the dose-escalation and dose-expansion phases who received at least one dose of pamiparib (Supplementary Table S2). Patients in the safety analysis set for whom valid pamiparib PK parameters were estimated and for whom evaluable PD results were available represented the PK population and the PD population, respectively. The efficacy-evaluable population included patients in the safety analysis set who had at least one evaluable postbaseline tumour assessment or those who discontinued due to clinical disease progression or early death before tumour assessment could be performed. The EOC efficacy-evaluable population was a subset of the overall efficacy-evaluable population that included patients with EOC from both the dose-escalation and dose-expansion phases. Patients in the dose-expansion phase without measurable disease at baseline per RECIST v1.1 were excluded from the efficacy-evaluable population.
Descriptive statistics were used to summarise all study data (see Supplemental Appendix). Progression-free survival (PFS) and event-free rates were estimated using the Kaplan–Meier method along with the corresponding 95% CI. Pharmacokinetic parameters were derived using standard non-compartmental methods with Phoenix WinNonlin Version 6.4 or higher (Pharsight Corp., Mountain View, California).

[1] = overall efficacy-evaluable population (n=95)

Structure (SMILES): C[C@]12CCCN1CC1=NNC(=O)c3cc(F)cc4[nH]c2c1c34 [pamiparib]
- Best overall response: Not evaluable (10 mg BID (n=3)): 0 (0.0) n (%)
- Best overall response: Partial response (10 mg BID (n=3)): 0 (0.0) n (%)
- Best overall response: Progressive disease (10 mg BID (n=3)): 1 (33.3) n (%)
- Best overall response: Stable disease (10 mg BID (n=3)): 2 (66.7) n (%)
- Clinical benefit rate (10 mg BID (n=3)): 0.0 (0.00-70.76) % (95% CI)
- Disease control rate (10 mg BID (n=3)): 66.7 (9.43-99.16) % (95% CI)
- Objective response rate (10 mg BID (n=3)): 0.0 (0.00-70.76) % (95% CI)
- Best overall response: Complete response (20 mg BID (n=3)): 1 (33.3) n (%)
- Best overall response: Not assessed (20 mg BID (n=3)): 0 (0.0) n (%)
- Best overall response: Not evaluable (20 mg BID (n=3)): 0 (0.0) n (%)
- Best overall response: Partial response (20 mg BID (n=3)): 1 (33.3) n (%)
- Best overall response: Progressive disease (20 mg BID (n=3)): 1 (33.3) n (%)
- Best overall response: Stable disease (20 mg BID (n=3)): 0 (0.0) n (%)
- Clinical benefit rate (20 mg BID (n=3)): 66.7 (9.43-99.16) % (95% CI)
- Disease control rate (20 mg BID (n=3)): 66.7 (9.43-99.16) % (95% CI)
- Objective response rate (20 mg BID (n=3)): 66.7 (9.43-99.16) % (95% CI)
- Best overall response: Complete response (40 mg BID (n=6)): 0 (0.0) n (%)
- Best overall response: Not assessed (40 mg BID (n=6)): 0 (0.0) n (%)
- Best overall response: Not evaluable (40 mg BID (n=6)): 0 (0.0) n (%)
- Best overall response: Partial response (40 mg BID (n=6)): 2 (33.3) n (%)
- Best overall response: Progressive disease (40 mg BID (n=6)): 0 (0.0) n (%)
- Best overall response: Stable disease (40 mg BID (n=6)): 4 (66.7) n (%)
- Clinical benefit rate (40 mg BID (n=6)): 33.3 (4.33-77.72) % (95% CI)
- Disease control rate (40 mg BID (n=6)): 100.0 (54.07-100.00) % (95% CI)
- Objective response rate (40 mg BID (n=6)): 33.3 (4.33-77.72) % (95% CI)
- Best overall response: Complete response (60 mg BID (n=11)): 1 (9.1) n (%)
- Best overall response: Not assessed (60 mg BID (n=11)): 2 (18.2) n (%)
- Best overall response: Not evaluable (60 mg BID (n=11)): 0 (0.0) n (%)
- Best overall response: Partial response (60 mg BID (n=11)): 0 (0.0) n (%)
- Best overall response: Progressive disease (60 mg BID (n=11)): 3 (27.3) n (%)
- Best overall response: Stable disease (60 mg BID (n=11)): 5 (45.5) n (%)
- Clinical benefit rate (60 mg BID (n=11)): 18.2 (2.28-51.78) % (95% CI)
- Disease control rate (60 mg BID (n=11)): 54.5 (23.38-83.25) % (95% CI)
- Objective response rate (60 mg BID (n=11)): 9.1 (0.23-41.28) % (95% CI)
- Best overall response: Complete response (80 mg BID (n=9)): 1 (11.1) n (%)
- Best overall response: Not assessed (80 mg BID (n=9)): 1 (11.1) n (%)
- Best overall response: Not evaluable (80 mg BID (n=9)): 0 (0.0) n (%)
- Best overall response: Partial response (80 mg BID (n=9)): 1 (11.1) n (%)
- Best overall response: Progressive disease (80 mg BID (n=9)): 1 (11.1) n (%)
- Best overall response: Stable disease (80 mg BID (n=9)): 5 (55.6) n (%)
- Clinical benefit rate (80 mg BID (n=9)): 44.4 (13.70-78.80) % (95% CI)
- Disease control rate (80 mg BID (n=9)): 77.8 (39.99-97.19) % (95% CI)
- Objective response rate (80 mg BID (n=9)): 22.2 (2.81-60.01) % (95% CI)
- Best overall response: Complete response (120 mg BID (n=5)): 0 (0.0) n (%)
- Best overall response: Not assessed (120 mg BID (n=5)): 1 (20.0) n (%)
- Best overall response: Not evaluable (120 mg BID (n=5)): 1 (20.0) n (%)
- Best overall response: Partial response (120 mg BID (n=5)): 1 (20.0) n (%)
- Best overall response: Progressive disease (120 mg BID (n=5)): 1 (20.0) n (%)
- Best overall response: Stable disease (120 mg BID (n=5)): 1 (20.0) n (%)
- Clinical benefit rate (120 mg BID (n=5)): 20.0 (0.51-71.64) % (95% CI)
- Disease control rate (120 mg BID (n=5)): 40.0 (5.27-85.34) % (95% CI)
- Objective response rate (120 mg BID (n=5)): 20.0 (0.51-71.64) % (95% CI)
- Best overall response: Complete response (Total BID (N=44)): 3 (6.8) n (%)
- Best overall response: Not assessed (Total BID (N=44)): 7 (15.9) n (%)
- Best overall response: Not evaluable (Total BID (N=44)): 1 (2.3) n (%)
- Best overall response: Partial response (Total BID (N=44)): 7 (15.9) n (%)
- Best overall response: Progressive disease (Total BID (N=44)): 8 (18.2) n (%)
- Best overall response: Stable disease (Total BID (N=44)): 18 (40.9) n (%)
- Clinical benefit rate (Total BID (N=44)): 29.5 (16.76-45.20) % (95% CI)
- Disease control rate (Total BID (N=44)): 63.6 (47.77-77.59) % (95% CI)
- Objective response rate (Total BID (N=44)): 22.7 (11.47-37.84) % (95% CI)
- Patients who died (efficacy-evaluable patients (N 95), n = 10): 10.5%
- Patients who progressed (efficacy-evaluable patients (N 95), n = 50): 52.6%
- Patients who died or progressed (efficacy-evaluable patients, 60/95): 63.2%
- Confirmed complete responses [1]: 4.2%
- Confirmed partial responses [1]: 20%
- Confirmed ORR (overall efficacy-evaluable population (n=95), BID and QD): 24.2%
